{
  "source": "paper PMC8783508",
  "about": "“A novel D-amino acid peptide with therapeutic potential (ISAD1) inhibits aggregation of neurotoxic disease-relevant mutant Tau and prevents Tau toxicity in vitro” (Alzheimer's Research & Therapy, 2022)",
  "target": "T1, Tau^FLΔK (Homo sapiens, UniProt P10636, DEL597-597)",
  "T1 construct": "Tau^FLΔK Full-length Tau mutant ΔK280",
  "T1 sequence (P10636 with tags, fused parts or gaps isoform P10636-8 DEL280-280)": "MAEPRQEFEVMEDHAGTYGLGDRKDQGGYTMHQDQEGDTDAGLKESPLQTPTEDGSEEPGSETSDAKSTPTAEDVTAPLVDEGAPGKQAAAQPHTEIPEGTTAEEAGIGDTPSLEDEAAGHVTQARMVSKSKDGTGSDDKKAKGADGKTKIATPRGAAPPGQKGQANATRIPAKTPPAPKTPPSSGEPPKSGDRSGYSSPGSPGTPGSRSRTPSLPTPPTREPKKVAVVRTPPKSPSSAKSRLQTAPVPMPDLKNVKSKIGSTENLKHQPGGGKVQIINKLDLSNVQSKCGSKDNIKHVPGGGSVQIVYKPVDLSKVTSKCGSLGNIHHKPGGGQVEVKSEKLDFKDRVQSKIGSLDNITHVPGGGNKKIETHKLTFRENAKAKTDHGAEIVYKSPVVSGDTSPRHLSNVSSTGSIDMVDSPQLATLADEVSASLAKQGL",
  "assay": "Fibrillization of Tau^FLΔK monitored by ThS assay",
  "type": "biochemical",
  "settings": "Tau:peptide = 1:1; 1:5; 1:10",
  "experimental": "For Tau fibrillization inhibition assays, 10 μM Tau mutant protein (Tau^RDΔK, Tau^FLΔK, Tau^FL-A152T, Tau^FL-P301L) was incubated in BES buffer (N,N-bis(2-hydroxyethyl)-2-aminoethanesulfonic acid, pH 7) in the presence of 2.5 μM heparin at 37 °C for 24 h with and without novel D-peptides (ISAD1 and ISAD1rev) at different concentrations (1 nM to 200 μM). Final concentration of 20 μM ThS was used for monitoring fibrillization. The assay was performed with 40-μl sample volume per well in a 384-well microtiter plate (Thermo LabSystems, Dreieich, Germany). The fibrillization of Tau was monitored by ThS and the relative fluorescence intensity of ThS was read out at 440 excitation/521 emission nm in a Tecan micro titer plate reader (Tecan, Männedorf, Switzerland).",
  "note": "Non-standard residues stand in square brackets, D forms with d. Residues, ends and D or L forms follow the SMILES beside them.",
  "data": [
    {"smiles": "CC(C)C[C@@H](NC(=O)[C@@H](CO)NC(=O)[C@@H](CC(C)C)NC(=O)[C@H](NC(=O)[C@@H](CC(=O)O)NC(=O)[C@@H](C)NC(=O)[C@@H](C)NC(=O)[C@H](N)CO)[C@H](C)O)C(=O)N[C@H](CCCCN)C(=O)N[C@H](Cc1ccccc1)C(=O)N[C@@H](C(=O)N[C@H](CO)C(=O)O)C(C)C", "note": "[ISAD1rev] (H-[dS][dA][dA][dD][dT][dL][dS][dL][dK][dF][dV][dS]-OH; N-terminus and C-terminus assumed)", "values": [
      {"measurement": "Inhibition of Tau^FLΔK fibrillization, in words", "result": "weak inhibitory effects"}
    ]}
  ]
}
